Experiment [1] addresses Recombinant human EIF2AK3 (PERK) catalytic domain (amino acids 536-1116) (Homo sapiens (Human), UniProt Q9NZJ5). The experiment can be described thus: PERK In Vitro Activity Assay (isolated), TR-FRET kinase assay. Particulars: isolated PERK enzyme, 1.5 μM ATP, read-out: Biochemical IC50. Put shortly: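 Recombinant PERK catalytic domain was incubated with 100–200 nM GFP-eIF2a substrate in 50 mM HEPES pH 7.5, 10 mM MgCl2, 1.0 mM EGTA and 0.01% Brij-35 for 45 min at room temperature. After a 10 mM EDTA stop, 2 nM Tb-anti-phospho-eIF2a was added for 90 min, and IC50 was fitted from TR-FRET ratios by 4-parameter logistic regression.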

In experiment [2] the test system is eIF2α in HEK293-EGFP-eIF2α cells. The experiment can be described thus: PERK Cellular Assay (HEK293-EGFP-eIF2α cells, tunicamycin-induced ER stress, TR-FRET). In kind it is cell-based. Particulars: tunicamycin 2 hours. Put shortly:
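Cells pre-incubated with inhibitor 30 min at 37 °C, then ER stress induced with […] tunicamycin for 2 h. TR-FRET read on lysates; ratio normalized to DMSO control as percent inhibition over a 10-point, 3-fold dilution series; IC50 from 4-parameter logistic fit.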

Chain of Recombinant human EIF2AK3 (PERK) catalytic domain (amino acids 536-1116) (Q9NZJ5 536-1116): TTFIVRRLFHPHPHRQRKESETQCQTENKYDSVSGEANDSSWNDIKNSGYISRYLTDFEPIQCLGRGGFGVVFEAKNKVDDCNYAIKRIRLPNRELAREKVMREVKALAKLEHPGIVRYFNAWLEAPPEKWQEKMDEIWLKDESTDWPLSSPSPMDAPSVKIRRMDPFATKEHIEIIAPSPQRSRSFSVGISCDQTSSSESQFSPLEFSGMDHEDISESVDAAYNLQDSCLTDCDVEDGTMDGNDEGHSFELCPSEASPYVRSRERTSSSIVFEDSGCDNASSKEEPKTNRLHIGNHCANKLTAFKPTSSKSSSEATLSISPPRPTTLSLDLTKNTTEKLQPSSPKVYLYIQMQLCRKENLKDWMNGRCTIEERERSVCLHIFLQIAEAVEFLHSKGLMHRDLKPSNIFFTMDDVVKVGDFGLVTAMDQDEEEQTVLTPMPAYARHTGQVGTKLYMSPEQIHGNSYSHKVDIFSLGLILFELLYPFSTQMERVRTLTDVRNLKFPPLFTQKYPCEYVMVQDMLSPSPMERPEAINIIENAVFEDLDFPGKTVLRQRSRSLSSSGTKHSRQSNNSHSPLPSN

Regarding `Cc1cc(F)cc(C(O)C(=O)Nc2ccc(-c3nc(C)n4c(C)cnc(N)c34)c(C)c2)c1` (stereo not shown) [Example 63, N-(4-(8-amino-3,5-dimethylimidazo [1,5-a]pyrazin-1-yl)-3-methyl-phenyl)-2-(3-fluoro-5-methylphenyl)-2-hydroxyacetamide], the IC50 in experiment [1] is 1 to 25 nM; in experiment [2], 51 to 100 nM.
The like results for `[2H]C([2H])([2H])c1nc(-c2ccc(NC(=O)C(O)c3cc(F)cc(C(F)(F)F)c3)cc2F)c2c(N)ncc(Cl)n12` (stereo not shown) [Example 115, N-[4-[8-amino-5-chloro-3-(trideuteriomethyl)imidazo[1,5-a]pyrazin-1-yl]-3-fluoro-phenyl]-2-[3-fluoro-5-(trifluoromethyl)phenyl]-2-hydroxy-acetamide] were, in that order, 1 to 25 nM and 26 to 50 nM.
The like results for `[2H]C([2H])([2H])c1nc(-c2cnc(NC(=O)C(O)c3cccc(F)c3)cc2C)c2c(N)ncc(C)n12` (stereo not shown) [Example 181, N-[5-[8-amino-5-methyl-3-(trideuteriomethyl)imidazo[1,5-a]pyrazin-1-yl]-4-methyl-2-pyridyl]-2-(3-fluorophenyl)-2-hydroxy-acetamide] were, in that order, 1 to 25 nM and 26 to 50 nM.
The corresponding values for `[2H]C([2H])([2H])c1nc(-c2ccc(NC(=O)C(O)c3cccc(Cl)c3)c(F)c2F)c2c(N)ncc(C(F)(F)F)n12` (stereo not shown) [Example 143, N-[4-[8-amino-3-(trideuteriomethyl)-5-(trifluoromethyl)imidazo[1,5-a]pyrazin-1-yl]-2,3-difluoro-phenyl]-2-(3-chlorophenyl)-2-hydroxy-acetamide] are 251 to 500 nM and 251 to 500 nM.
For `[2H]C([2H])([2H])c1nc(-c2ccc(NC(=O)C(O)c3cccc(F)c3)c(F)c2F)c2c(N)ncc(Cl)n12` (stereo not shown) [Example 136, N-[4-[8-amino-5-chloro-3-(trideuteriomethyl)imidazo[1,5-a]pyrazin-1-yl]-2,3-difluoro-phenyl]-2-(3-fluoro-phenyl)-2-hydroxy-acetamide], the IC50 in experiment [1] and in experiment [2] was 1 to 25 nM in each case.
In the case of `[2H]C([2H])([2H])c1nc(-c2ccc(NC(=O)C(O)c3cccc(F)c3)c(F)c2F)c2c(N)ncc(C)n12` (stereo not shown) [Example 133, N-[4-[8-amino-5-methyl-3-(trideuteriomethyl)imidazo[1,5-a]pyrazin-1-yl]-2,3-difluoro-phenyl]-2-(3-fluoro-phenyl)-2-hydroxy-acetamide], the values for the IC50 in experiment [1] and in experiment [2] were 1 to 25 nM and 101 to 250 nM, respectively.
The like results for `[2H]C([2H])([2H])c1nc(-c2ccc(NC(=O)C(O)c3cccc(Cl)c3)c(F)c2F)c2c(N)nc(C)cn12` (stereo not shown) [Example 141, N-[4-[8-amino-6-methyl-3-(trideuteriomethyl)imidazo[1,5-a]pyrazin-1-yl]-2,3-difluoro-phenyl]-2-(3-chlorophenyl)-2-hydroxy-acetamide] were, in that order, 51 to 100 nM and 501 to 1000 nM.
The corresponding values for `[2H]C([2H])([2H])c1nc(-c2ccc(NC(=O)C(O)c3cc(F)cc(F)c3)cc2F)c2c(N)ncc(C)n12` (stereo not shown) [Example 104, N-[4-[8-amino-5-methyl-3-(trideuteriomethyl)imidazo[1,5-a]pyrazin-1-yl]-3-fluoro-phenyl]-2-(3,5-difluoro-phenyl)-2-hydroxy-acetamide] are 1 to 25 nM and 1 to 25 nM.
The like results for `[2H]C([2H])([2H])c1nc(-c2ccc(NC(=O)C(O)c3cccc(Cl)c3)c(F)c2F)c2c(N)ncc(C(F)(F)F)n12` (stereo not shown) [Example 142, N-[4-[8-amino-3-(trideuteriomethyl)-5-(trifluoromethyl)imidazo[1,5-a]pyrazin-1-yl]-2,3-difluoro-phenyl]-2-(3-chlorophenyl)-2-hydroxy-acetamide] were, in that order, 1 to 25 nM and 1 to 25 nM.
Take `[2H]C([2H])([2H])c1nc(-c2ccc(NC(=O)C(O)c3cc(F)cc(C(F)(F)F)c3)c(F)c2F)c2c(N)ncc(C(F)(F)F)n12` (stereo not shown) [Example 163, N-[4-[8-amino-3-(trideuteriomethyl)-5-(trifluoromethyl)imidazo[1,5-a]pyrazin-1-yl]-2,3-difluoro-phenyl]-2-[3-fluoro-5-(trifluoromethyl)phenyl]-2-hydroxy-acetamide]: the IC50 in experiment [1] and in experiment [2] was 251 to 500 nM each time.
Consider `[2H]C([2H])([2H])c1nc(-c2ccc(NC(=O)C(O)c3cc(F)cc(F)c3)c(F)c2F)c2c(N)ncc(Cl)n12` (stereo not shown) [Example 157, N-[4-[8-amino-5-chloro-3-(trideuteriomethyl)imidazo[1,5-a]pyrazin-1-yl]-2,3-difluoro-phenyl]-2-(3,5-difluorophenyl)-2-hydroxy-acetamide], for which the results for the IC50 in experiment [1] and in experiment [2] were 1 to 25 nM and 51 to 100 nM, respectively.
The corresponding values for `Cc1cnc(N)c2c(-c3ccc(NC(=O)C(O)c4cccc(F)c4)cc3OC(F)(F)F)nc(C)n12` (stereo not shown) [Example 126, N-(4-(8-amino-3,5-dimethyl-imidazo[1,5-a]pyrazin-1-yl)-3-(trifluoromethoxy)phenyl)-2-(3-fluorophenyl)-2-hydroxyacetamide] are 101 to 250 nM and 501 to 1000 nM.
The corresponding values for `Cc1cc(F)cc(C(O)C(=O)Nc2ccc(-c3nc(C)n4c(C)cnc(N)c34)c(C)c2)c1` (stereo not shown) [Example 62, N-(4-(8-amino-3,5-dimethylimidazo [1,5-a]pyrazin-1-yl)-3-methyl-phenyl)-2-(3-fluoro-5-methylphenyl)-2-hydroxyacetamide] are 1 to 25 nM and 1 to 25 nM.
Take `[2H]C([2H])([2H])c1nc(-c2ccc(NC(=O)C(O)c3cccc(F)c3)cc2F)c2c(N)ncc(C)n12` (stereo not shown) [Example 72, N-[4-[8-amino-5-methyl-3-(trideuteriomethyl)imidazo[1,5-a]pyrazin-1-yl]-3-fluoro-phenyl]-2-(3-fluorophenyl)-2-hydroxy-acetamide]: the IC50 in experiment [1] and in experiment [2] (2 h) was 1 to 25 nM each time.
Take `[2H]C([2H])([2H])c1nc(-c2ccc(NC(=O)C(O)c3cccc(C(F)(F)F)c3)cc2C)c2c(N)ncc(Cl)n12` (stereo not shown) [Example 18, N-[4-[8-amino-5-chloro-3-(trideuteriomethyl)imidazo[1,5-a]pyrazin-1-yl]-3-methyl-phenyl]-2-hydroxy-2-[3-(trifluoromethyl)phenyl]acetamide]: the IC50 in experiment [1] and in experiment [2] was 1 to 25 nM throughout.
For `Cc1cc(NC(=O)C(O)c2cccc(F)c2)c(F)cc1-c1nc(C)n2c(C)cnc(N)c12` (stereo not shown) [Example 64, N-(4-(8-amino-3,5-dimethylimidazo [1,5-a]pyrazin-1-yl)-2-fluoro-5-methylphenyl)-2-(3-fluorophenyl)-2-hydroxy-acetamide], the IC50 in experiment [1] lay within 51 to 100 nM; in experiment [2], 501 to 1000 nM.
Take `[2H]C([2H])([2H])c1nc(-c2ccc(NC(=O)C(O)c3cccc(C(F)(F)F)c3)cc2F)c2c(N)ncc(Cl)n12` (stereo not shown) [Example 100, N-[4-[8-amino-5-chloro-3-(trideuteriomethyl)imidazo[1,5-a]pyrazin-1-yl]-3-fluoro-phenyl]-2-hydroxy-2-[3-(trifluoromethyl)phenyl]acetamide]: the IC50 in experiment [1] and in experiment [2] (2 h) was 1 to 25 nM each time.
Consider `[2H]C([2H])([2H])c1nc(-c2ccc(NC(=O)C(O)c3cc(F)cc(C(F)(F)F)c3)c(F)c2F)c2c(N)nc(C)cn12` (stereo not shown) [Example 166, N-[4-[8-amino-6-methyl-3-(trideuteriomethyl)imidazo[1,5-a]pyrazin-1-yl]-2,3-difluoro-phenyl]-2-[3-fluoro-5-(trifluoromethyl)phenyl]-2-hydroxy-acetamide], for which the IC50 in experiment [1] and in experiment [2] was 1 to 25 nM in each case.
On to `[2H]C([2H])([2H])c1nc(-c2ccc(NC(=O)C(O)c3cccc(C(F)(F)F)c3)c(F)c2F)c2c(N)ncc(C(F)(F)F)n12` (stereo not shown) [Example 149, N-[4-[8-amino-3-(trideuteriomethyl)-5-(trifluoromethyl)imidazo[1,5-a]pyrazin-1-yl]-2,3-difluoro-phenyl]-2-hydroxy-2-[3-(trifluoromethyl)phenyl]acetamide], for which the IC50 in experiment [1] was 501 to 1000 nM; in experiment [2], 251 to 500 nM.
The like results for `Cc1cc(NC(=O)C(O)c2cccc(F)c2)ccc1-c1nc(C)n2c(C(F)(F)F)cnc(N)c12` (stereo not shown) [Example 26, N-(4-(8-amino-3-methyl-5-(trifluoromethyl)imidazo[1,5-a]pyrazin-1-yl)-3-methylphenyl)-2-(3-fluorophenyl)-2-hydroxyacetamide] were, in that order, 1 to 25 nM and 26 to 50 nM.
As to `[2H]C([2H])([2H])c1nc(-c2ccc(NC(=O)C(O)c3cc(F)cc(C(F)(F)F)c3)c(F)c2F)c2c(N)ncc(C)n12` (stereo not shown) [Example 161, N-[4-[8-amino-5-methyl-3-(trideuteriomethyl)imidazo[1,5-a]pyrazin-1-yl]-2,3-difluoro-phenyl]-2-[3-fluoro-5-(trifluoromethyl)phenyl]-2-hydroxy-acetamide], the figures for the IC50 in experiment [1] and in experiment [2] were 1 to 25 nM and 101 to 250 nM, respectively.
`Cc1cc(NC(=O)C(O)c2cccc(F)c2)ccc1-c1nc(C)n2c(C(F)(F)F)cnc(N)c12` (stereo not shown) [Example 27, N-(4-(8-amino-3-methyl-5-(trifluoromethyl)imidazo[1,5-a]pyrazin-1-yl)-3-methylphenyl)-2-(3-fluorophenyl)-2-hydroxyacetamide]: the IC50 in experiment [1] fell in the range of 1 to 25 nM; in experiment [2], 251 to 500 nM.
The corresponding values for `[2H]C([2H])([2H])c1nc(-c2ccc(NC(=O)C(O)c3cc(F)cc(F)c3)c(F)c2F)c2c(N)ncc(C(F)(F)F)n12` (stereo not shown) [Example 158, N-[4-[8-amino-3-(trideuteriomethyl)-5-(trifluoromethyl)imidazo[1,5-a]pyrazin-1-yl]-2,3-difluoro-phenyl]-2-(3,5-difluorophenyl)-2-hydroxy-acetamide] are 1 to 25 nM and 1 to 25 nM.

The values above are taken from US12331054B2, “Perk inhibiting imidazolopyrazine compounds” (HiberCell, Inc., priority 2019, dated 2025).
